Laboratory results from patent publication US20240390357A1, “PYRIDINES AND THEIR USE IN TREATMENT OF GBA-RELATED DISEASES” (ZEVRA DENMARK A/S, priority 2021, published 2024).
Marks after values point to notes of the source that are not given here.

Target: T1, GBA (glucosylceramidase, GCase), L444P GBA mutation (Homo sapiens, UniProt P04062, L483P)
T1 construct: Human fibroblast cell line GM10915 harboring the L444P GBA mutation was obtained from Coriell Biorepositories; host or cells: GM10915 human fibroblasts
T1 sequence (P04062 40-536 L483P): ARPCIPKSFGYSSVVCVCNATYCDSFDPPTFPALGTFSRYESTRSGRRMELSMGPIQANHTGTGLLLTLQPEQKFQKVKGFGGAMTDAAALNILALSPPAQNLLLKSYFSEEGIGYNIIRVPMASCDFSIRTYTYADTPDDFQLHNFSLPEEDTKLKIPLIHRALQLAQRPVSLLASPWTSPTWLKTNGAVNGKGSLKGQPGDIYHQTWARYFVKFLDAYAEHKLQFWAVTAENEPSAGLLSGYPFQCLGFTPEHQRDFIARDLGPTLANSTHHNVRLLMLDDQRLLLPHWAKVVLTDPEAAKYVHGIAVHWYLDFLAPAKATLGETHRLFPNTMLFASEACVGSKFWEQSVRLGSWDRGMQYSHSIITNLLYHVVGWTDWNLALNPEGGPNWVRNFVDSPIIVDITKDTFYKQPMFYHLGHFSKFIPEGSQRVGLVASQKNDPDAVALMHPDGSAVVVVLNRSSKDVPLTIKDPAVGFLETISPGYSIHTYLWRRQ
Experiment: GCase activity assay (4-MUG) in GM10915 fibroblasts, normalised to crystal violet staining
Type: cell-based
Conditions: five days exposure; for GBA EC1.5: concentration where Percent GCase activity = 150% (1.5-fold induction), human fibroblast cell line GM10915 (L444P GBA), 8-point dose range; for Emax / GBA Emax: maximum Percent GCase activity in the dose range tested, relative to basal activity of untreated cells, GM10915 (L444P GBA)
Procedure: Human fibroblast cell line GM10915 harboring the L444P GBA mutation was obtained from Coriell Biorepositories.
The GM10915 cell line was cultured under standard cell culture conditions (37° C. and 5% CO2) in complete DMEM medium supplemented with nonessential amino acids (NEAA), 1% Pen-Strep and 12% FCS. Cells were seeded at a density of 10^4 cells/well in 100 μL complete medium in one black 96-well plate for glucosylceramidase (GCase) activity measurement and in one clear 96-well plate for crystal violet staining to correct for cell density. Crystal violet staining is performed to obtain quantitative information about the relative density of cells adhering to multi-wells plates.
The assay was adapted from Sawkar et al (2002) and briefly described in the following. The day after seeding of cells, the medium was replaced with fresh medium containing the compounds to be tested. Compounds were tested in duplicate and in an 8-point diluted dose range to obtain a dose response. Cells were exposed with compounds for five days. Fresh compound was added every 2-3 days. PBS was included to define the basal level of GCase activity.
Cells were washed three times with 200 μL PBS per well and 50 μL of 2.5 mM 4-MUG buffer (4-MUG dissolved in 0.2 M acetate buffer pH 4.0) was added and the cells were incubated at 37° C., 5% CO2 for 23 hours. The reaction was stopped by adding 150 μL 0.2 M glycine buffer (pH 10.8). Fluorescence was measured with a Varioskan® Flash reader (Thermo Scientific) at an excitation/emission setting of 365/445 nm.
Cells were treated with compounds in a parallel setup identical to the setup to test for GCase activity. At the end of compound treatment, cells were washed once with 200 μL PBS per well and 50 μL 0.1% w/v crystal violet (in H20) was added. Following 10 min. of incubation, the crystal violet solution was removed, and the cells were washed three times with 200 μL PBS and 100 μL 1% SDS was added to solubilize the stain.
The plate was agitated on an orbital shaker for 10-30 min. Absorbance (A) is measured at […] using a Varioskan® Flash reader (Thermo Scientific).
The fluorescence signal (F) derived from the GCase measurement is normalized to the absorbance signal (A) derived from the crystal violet staining. The percent GCase activity resulting from compound treatment is calculated relative to the basal activity obtained from untreated cells.
Maximal effect of compounds (E max) is determined from the dose response effects as the maximum “Percent GCase activity” achieved in the dose range tested.

| Compound | GBA EC1.5 | Emax [%] | GBA Emax [%] |
| --- | --- | --- | --- |
| Nc1c(Br)cc(Br)cc1CN[C@H]1CC[C@H](O)CC1 [Ambroxol, reference compound] | >20* *The 1.5-fold induction criteria was not reached within the tested concentration range μM |  |  |
| CCCCCO[C@H]1CC[C@H](NC(=O)c2cnn3c(C)cc(C)nc23)CC1 [LTI-291, reference compound] | 112 µM |  |  |
| C1CCN(Cc2noc(C3CCCNC3)n2)CC1 (stereo not shown) [compound 614] | 46 µM | 169 |  |
| c1cn(C2CCNCC2)nc1CN1CCCCC1 [compound 624] | 21 µM | 189 |  |
| c1c(C2CCNC2)noc1CN1CCCCC1 (stereo not shown) [compound 654] | 4.9 µM | 381 |  |
| C1=C(c2ccc(CN3CCCCC3)cn2)CNC1 [compound 666] | 9.2 µM | 253 |  |
| Cn1nc(C2CCCNC2)cc1CN1CCCCC1 (stereo not shown) [compound 708] | 16 µM | 205 |  |
| COc1ncc(C2CCCNC2)cc1CN1CCCCC1 (stereo not shown) [compound 729] | 2.7 µM | 223 |  |
| Cc1cc(C2CCCNC2)nc(CN2CCCCC2)n1 (stereo not shown) [compound 730] | 5.0 µM |  | 234 |
| Cc1cc(CN2CCCCC2)nc(C2CCCNC2)c1 (stereo not shown) [compound 732] | 3.2 µM | 200 |  |
| COc1ncc(C2CCN(C)CC2)cc1CN1CCCCC1 [compound 735] | 2.3 µM | 212 |  |
| CN1CCCC(c2cncc(CN3CCCCC3)c2)C1 (stereo not shown) [compound 736] | 3.7 µM | 216 |  |
| Cc1cc(C2CCCNC2)nc(CN2CCCCC2)n1 (stereo not shown) [compound 737] | 21.5 µM |  | 203 |
| Cc1cc(C2CCCN(C)C2)nc(CN2CCCCC2)n1 (stereo not shown) [compound 738] | 5.4 µM | 248 |  |
| c1nc(C2CCCNC2)cnc1CN1CCCCC1 (stereo not shown) [compound 754] | 11.8 µM | 180 |  |
| c1cc(CN2CCCCC2)ncc1C1CCCNC1 (stereo not shown) [compound 757] | 4.2 µM | 214 |  |
| Cc1cc(CN2CCCCC2)cnc1C1CCCNC1 (stereo not shown) [compound 758] | 3.1 µM | 233 |  |
| CC(c1cncc(C2CCCNC2)c1)N1CCCCC1 (stereo not shown) [compound 761] | 5.2 µM | 205 |  |

| Compound | GBA EC1.5 | Emax [%] | GBA Emax [%] |
| --- | --- | --- | --- |
| CN1CCCC(c2cnc(CN3CCCCC3)cn2)C1 (stereo not shown) [compound 773] | 3.9 µM | 236 |  |
| CN1CCC(c2cnc(CN3CCCCC3)cn2)CC1 [compound 774] | 9.7 µM | 198 |  |
| CN1CCCC(c2ccc(CN3CCCCC3)nc2)C1 (stereo not shown) [compound 776] | 4.3 µM | 200 |  |
| Cc1cc(CN2CCCCC2)cnc1C1CCN(C)CC1 [compound 777] | 6.9 µM | 200 |  |
| CN1CCC(c2cc(CN3CCCCC3)ncn2)CC1 [compound 784] | 6.5 µM | 155 |  |
| c1cc(CN2CCCCC2)nc(C2CCCNC2)c1 (stereo not shown) [compound 791] | 4.4 µM | 165 |  |
| c1cc(CN2CCCCC2)nc(C2CCNC2)c1 (stereo not shown) [compound 793] | 29.2 µM | 165 |  |
| CN1CCC(c2cccc(CN3CCCCC3)n2)CC1 [compound 794] | 3.0 µM | 269 |  |
| Cc1cc(CN2CCCCC2)cc(C2CCN(C)CC2)n1 [compound 795] | 7.0 µM | 185 |  |
| CN1CCCC(c2cccc(CN3CCCCC3)n2)C1 (stereo not shown) [compound 796] | 2.6 µM | 267 |  |
| CN1CCC(c2cccc(CN3CCCCC3)n2)C1 (stereo not shown) [compound 798] | 2.5 µM | 250 |  |
| Cc1ccc(CN2CCCCC2)nc1C1CCN(C)CC1 [compound 801] | 3.9 µM | 173 |  |
| CN1CCCC(c2cc(CN3CCCCC3)ncn2)C1 (stereo not shown) [compound 802] | 8.8 µM | 256 |  |
| CN1CCCC(c2ccc(CN3CCCCC3)cn2)C1 (stereo not shown) [compound 810] | 4.9 µM | 199 |  |
| c1cc(C2CCCNC2)ncc1CN1CCCCC1 (stereo not shown) [compound 811] | 3.4 µM | 263 |  |
| COc1ncc(C2CCN(C)C2)cc1CN1CCCCC1 (stereo not shown) [compound 812] | 6.7 µM | 255 |  |
| c1nc(CN2CCCCC2)cc(C2CCNC2)n1 (stereo not shown) [compound 832] | 18.0 µM | 175 |  |
| c1cc2c(CN3CCCCC3)c[nH]c2nc1C1CCCNC1 (stereo not shown) [compound 833] | 12.1 µM | 203 |  |

The next lines start with the values.

| GBA EC1.5 | Emax [%] | GBA Emax [%] | Compound |
| --- | --- | --- | --- |
| 5.4 µM | 177 |  | c1cc(CN2CCCCC2)cc(C2CCNCC2)n1 [compound 540] |
| 7.5 µM | 234 |  | c1c(C2CCNCC2)noc1CN1CCCCC1 [compound 586] |
| 3.5 µM | 236 |  | c1nc(C2CCNCC2)sc1CN1CCCCC1 [compound 620] |
| 4.1 µM | 263 |  | c1cc(CN2CCCCC2)nc(C2CCNCC2)n1 [compound 638] |
| 24.8 µM | 160 |  | COc1ncc(C2CCNCC2)cc1CN1CCCCC1 [compound 715] |
| 30.8 µM | 176 |  | Cc1cc(C2CCNCC2)nc(CN2CCCCC2)n1 [compound 739] |
| 19.1 µM | 190 |  | c1nc(C2CCNCC2)cnc1CN1CCCCC1 [compound 753] |
| 6.6 µM | 200 |  | c1cc(C2CCNCC2)ncc1CN1CCCCC1 [compound 759] |
| 4.3 µM | 211 |  | Cc1cc(CN2CCCCC2)cnc1C1CCNCC1 [compound 760] |
| 3.3 µM | 227 |  | Cc1cc(CN2CCCCC2)cc(C2CCNCC2)n1 [compound 764] |
| 18.9 µM | 205 |  | c1ncc(C2CCNC2)cc1CN1CCCCC1 (stereo not shown) [compound 769] |
| 18.5 µM | 211 |  | CC(c1cncc(C2CCNCC2)c1)N1CCCCC1 (stereo not shown) [compound 772] |
| 24.5 µM | 186 |  | c1cc(CN2CCCCC2)ncc1C1CCNCC1 [compound 775] |
| 7.4 µM | 152 |  | Cc1ccc(CN2CCCCC2)nc1C1CCNCC1 [compound 778] |
| 8.0 µM | 278 |  | c1cc(CN2CCCCC2)nc(C2CCNCC2)c1 [compound 788] |
| 6.0 µM | 203 |  | COc1ncc(C2CCNC2)cc1CN1CCCCC1 (stereo not shown) [compound 803] |
| 28.6 µM | 175 |  | c1cc(CN2CCCCC2)ncc1C1CCNC1 (stereo not shown) [compound 808] |
| 35.9 µM | 181 |  | c1nc2cnc(C3CCNCC3)cn2c1CN1CCCCC1 [compound 841] |
| 2.8 µM | 245 |  | Fc1c(CN2CCCCC2)ccnc1C1CCNCC1 [compound 846] |
| 8.0 µM | 193 |  | c1cc2ncc(CN3CCCCC3)n2cc1C1CCNCC1 [compound 853] |
| 9.4 µM | 194 |  | c1cn2cc(CN3CCCCC3)nc2cc1C1CCNCC1 [compound 854] |
| 43.3 µM | 163 |  | c1cc(C2CCNCC2)nnc1CN1CCCCC1 [compound 855] |
| 6.5 µM | 204 |  | c1nc2cc(CN3CCCCC3)oc2cc1C1CCNCC1 [compound 868] |
| 4.3 µM | 237 |  | Fc1cc(C2CCNCC2)cnc1CN1CCCCC1 [compound 880] |
